From patent publication US20200131144A1, “AMINE OR (THIO)AMIDE CONTAINING LXR MODULATORS” (Phenex-FXR GmbH, priority 2017, published 2020)
pEC50: −log10 of the molar value.

Key:
[1] = biological target: T1, GST-LXRβ ligand-binding domain (Homo sapiens, UniProt P55055, INS174Q); assay: TR-FRETβ activity assay (NCoA3 coactivator peptide recruitment); format: biochemical; conditions: 1 μM 24(S)-25-epoxycholesterol as prestimulating agonist; inverse agonist unless *
T1 construct: amino acids 156-461; NP009052; made in house; host or cells: E. coli
T1 sequence (P55055 with tags, fused parts or gaps INS174Q limits assumed): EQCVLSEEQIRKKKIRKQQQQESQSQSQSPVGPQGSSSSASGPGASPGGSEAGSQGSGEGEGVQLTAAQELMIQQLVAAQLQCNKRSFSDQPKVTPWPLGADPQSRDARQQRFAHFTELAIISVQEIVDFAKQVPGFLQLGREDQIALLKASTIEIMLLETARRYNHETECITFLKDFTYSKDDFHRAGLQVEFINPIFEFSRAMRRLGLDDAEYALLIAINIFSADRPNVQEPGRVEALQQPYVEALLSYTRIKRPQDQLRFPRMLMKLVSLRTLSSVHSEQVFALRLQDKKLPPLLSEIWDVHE
Procedure: The tested compounds were usually dissolved, tested and stored as 20 mM stock solutions in DMSO. […] Sulfonyl acetic acid derivatives are shelf stable as solid at rt for long time as reported by Griesbrecht et al. (Synlett 2010:374) or Faucher et al. (J. Med. Chem. 2004; 47:18). TR-FRETβ Activity Assay Recombinant GST-LXRβ ligand-binding domain (LBD; amino acids 156-461; NP009052; SEQ ID NO:4) was expressed in E. coli and purified via gluthatione-sepharose affinity chromatography. N-terminally biotinylated NCoA3 coactivator peptide (SEQ ID NO:7) was chemically synthesized (Eurogentec). […] Finally, a detection mix was added containing anti GST-Tb cryptate (CisBio; 610SAXLB) and Streptavidin-XL665 (CisBio; 610SAXLB) as fluorescent donor and acceptor, respectively, as well as the coactivator peptide and LXRβ-LBD protein (SEQ ID NO:4). The reaction was mixed thoroughly, equilibrated for 1 h at 4° C. and vicinity of LXRβ and coactivator peptide was detected by measurement of fluorescence in a VictorX4 multiplate reader (PerkinElmer Life Science) using 340 nm as excitation and 615 and 665 nm as emission wavelengths. Assays were performed in triplicates. Final Assay Concentrations of Components: 240 mM KCl, 1 μg/μL BSA, 0.002% Triton-X-100, 125 pg/μL anti GST-Tb cryptate, 2.5 ng/μL Streptavidin-XL665, coactivator peptide (400 nM), LXRP protein ([…], i.e. 76 nM).

[2] = biological target: T2, LXRα full length (FL) (Homo sapiens, UniProt Q13133); assay: LXR Gal4 reporter transient transfection assay, mammalian two-hybrid, FL-M2H Gal4α; format: cell-based; conditions: HEK293 cells; inverse agonist unless *
T2 construct: the full length (FL) proteins of LXRα (amino acids 1-447); NP005684; expressed in transfected cells; host or cells: HEK293
T2 sequence (Q13133 1-447): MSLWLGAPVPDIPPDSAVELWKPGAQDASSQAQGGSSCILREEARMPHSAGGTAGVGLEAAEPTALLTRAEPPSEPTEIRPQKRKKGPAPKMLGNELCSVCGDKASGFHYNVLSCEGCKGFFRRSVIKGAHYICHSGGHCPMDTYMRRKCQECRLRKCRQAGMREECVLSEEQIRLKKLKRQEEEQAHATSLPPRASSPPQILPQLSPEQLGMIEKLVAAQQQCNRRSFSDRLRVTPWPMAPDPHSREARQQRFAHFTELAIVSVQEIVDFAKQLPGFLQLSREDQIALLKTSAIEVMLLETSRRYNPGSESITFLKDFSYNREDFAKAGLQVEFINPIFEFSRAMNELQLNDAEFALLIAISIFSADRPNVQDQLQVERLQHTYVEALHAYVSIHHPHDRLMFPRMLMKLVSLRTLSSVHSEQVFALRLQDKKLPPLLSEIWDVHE
Procedure: (§1) The tested compounds were usually dissolved, tested and stored as 20 mM stock solutions in DMSO. Since sulfonyl acetic acid derivatives tend to decarboxylate under these conditions, these stock solutions were prepared, tested and stored as 20 mM DMSO stock solutions containing 100 mM trifluoroacetic acid (5 equivalents). Sulfonyl acetic acid derivatives are shelf stable as solid at rt for long time as reported by Griesbrecht et al. (Synlett 2010:374) or Faucher et al. (J. Med. Chem. 2004; 47:18).
(§2) LXR Gal4 Reporter Transient Transfection Assays
(§3) LXRα and LXRβ activity status was determined via detection of interaction with coactivator and corepressor proteins in mammalian two-hybrid experiments (M2H). For this, via transient transfection the full length (FL) proteins of LXRα (amino acids 1-447; NP005684; SEQ ID NO:1) or LXRβ-(amino acids 1-461; NP009052; SEQ ID NO:2) or the ligand-binding domains (LBD) of LXRα (amino acids 155-447 SEQ ID NO:3) or LXR (amino acids 156-461; SEQ ID NO:4) were expressed from pCMV-AD (Stratagene) as fusions to the transcriptional activation domain of NFkB. As cofactors, domains of either the steroid receptor coactivator 1 (SRC1; amino acids 552-887; SEQ ID NO:5) or of the corepressor NCoR (amino acids 1906-2312; NP006302; SEQ ID NO:6) were expressed as fusions to the DNA binding domain of the yeast transcription factor GAL4 (from pCMV-BD; Stratagene). Interaction was monitored via activation of a coexpressed Firefly Luciferase Reporter gene under control of a promoter containing repetitive GAL4 response elements (vector pFRLuc; Stratagene). Transfection efficiency was controlled via cotransfection of constitutively active pRL-CMV Renilla reniformis luciferase reporter (Promega). HEK293 cells were grown in minimum essential medium (MEM) with 2 mM L-glutamine and Earle's balanced salt solution supplemented with 8.3% fetal bovine serum, 0.1 mM non-essential amino acids, 1 mM sodium pyruvate, at 37° C. in 5% CO2. 3.5×10^4 cells/well were plated in 96-well cell culture plates in growth medium supplemented with 8.3% fetal bovine serum for 16-20 h to—90% confluency. For transfection, medium was taken off and LXR and cofactor expressing plasmids as well as the reporter plasmids are added in 30 μL OPTIMEM/well including polyethylene-imine (PEI) as vehicle. Typical amounts of plasmids transfected/well: pCMV-AD-LXR (5 ng), pCMV-BD-cofactor (5 ng), pFR-Luc (100 ng), pRL-CMV (0.5 ng). Compound stocks were prepared in DMSO, prediluted in MEM to a total volume of 120 μL, and added 4 h after addition of the transfection mixture (final vehicle concentration not exceeding 0.2%). Cells were incubated for additional 16 h, lysed for 10 min in 1×Passive Lysis Buffer (Promega) and Firefly and Renilla luciferase activities were measured sequentially in the same cell extract using buffers containing D-luciferine and coelenterazine, respectively. Measurements of luminescence were done in a BMG-luminometer.

[3] = biological target: T3, LXRβ full length (FL) (Homo sapiens, UniProt P55055, INS174Q); assay: LXR Gal4 reporter transient transfection assay, mammalian two-hybrid, FL-M2H Gal4β; format: cell-based; conditions: HEK293 cells; inverse agonist unless *
T3 construct: the full length (FL) proteins of LXRα (amino acids 1-447); NP005684; NP009052; expressed in transfected cells; host or cells: HEK293
T3 sequence (P55055 with tags, fused parts or gaps INS174Q): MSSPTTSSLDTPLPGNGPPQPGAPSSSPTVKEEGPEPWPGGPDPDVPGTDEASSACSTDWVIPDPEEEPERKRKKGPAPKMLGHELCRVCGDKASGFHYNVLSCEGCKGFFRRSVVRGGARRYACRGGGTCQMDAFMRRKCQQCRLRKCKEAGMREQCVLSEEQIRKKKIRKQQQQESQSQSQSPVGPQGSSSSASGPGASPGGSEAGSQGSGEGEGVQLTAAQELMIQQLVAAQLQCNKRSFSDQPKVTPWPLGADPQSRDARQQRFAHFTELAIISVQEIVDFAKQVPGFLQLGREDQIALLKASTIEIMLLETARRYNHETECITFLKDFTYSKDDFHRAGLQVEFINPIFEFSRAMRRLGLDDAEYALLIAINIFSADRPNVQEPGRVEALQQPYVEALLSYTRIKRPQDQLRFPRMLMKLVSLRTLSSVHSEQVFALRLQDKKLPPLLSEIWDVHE
Procedure: as §1, §2, §3

| pEC50 [1] | pEC50 [2] | pEC50 [3] | SMILES |
| --- | --- | --- | --- |
| 6.00 to 7.00 | > 7.00 | > 7.00 | Cc1ccc2ccccc2c1C(=O)N(Cc1ccc(-c2cccc(C(C)(C)CC(=O)O)c2)cc1)Cc1ccc(C(F)(F)F)o1 [27/9] |
| 5.00 to 6.00 | > 7.00 | > 7.00 | COC(C)(C(=O)O)c1cccc(-c2ccc(CN(Cc3ccc(C(F)(F)F)o3)C(=O)c3c(C)ccc4ccccc34)cc2)c1 (stereo not drawn) [27/11] |
| 5.00 to 6.00 | 6.00 to 7.00 | > 7.00 | CC(C)(C(=O)O)c1cccc(-c2ccc(CN(Cc3ccc(C(F)(F)F)o3)C(=O)c3cccc4ncncc34)cc2)c1 [27/13] |
| 6.00 to 7.00 | 5.00 to 6.00 | 6.00 to 7.00 | CC(C)(C(=O)O)c1cccc(-c2ccc(CN(Cc3ccc(C(F)(F)F)o3)C(=O)c3cccc4cnncc34)cc2)c1 [27/14] |
| 6.00 to 7.00 | > 7.00 | > 7.00 | CC(C)(C(=O)O)c1cccc(-c2ccc(CN(Cc3ccc(C(F)(F)F)o3)Cc3cccc4c3CCOC4)cc2)c1 [27/15] |
| 6.00 to 7.00 | > 7.00 | > 7.00 | CC(C)(C(=O)O)c1cccc(-c2ccc(CN(Cc3ccc(C(F)(F)F)o3)Cc3cccc4c3CCCO4)cc2)c1 [27/16] |
| 6.00 to 7.00 | > 7.00 | > 7.00 | CN(C)c1ncc(CN(Cc2ccc(-c3cccc(C(C)(C)C(=O)O)c3)cc2)Cc2ccc(C(F)(F)F)o2)c2ccccc12 [27/18] |
| 6.00 to 7.00 | > 7.00 | > 7.00 | COc1ncc(CN(Cc2ccc(-c3cccc(C(C)(C)C(=O)O)c3)cc2)Cc2ccc(C(F)(F)F)o2)c2ccccc12 [27/19] |
| 6.00 to 7.00 | > 7.00 | > 7.00 | Cc1ccc2ccc(C)c(CN(Cc3ccc(-c4cccc(C(C)(C)C(=O)O)c4)cc3)Cc3ccc(C(F)(F)F)o3)c2c1 [27/20] |
| 6.00 to 7.00 | > 7.00 | > 7.00 | Cc1ccc2c(CN(Cc3ccc(-c4cccc(C(C)(C)C(=O)O)c4)cc3)Cc3ccc(C(F)(F)F)o3)c(C)ccc2c1 [27/21] |
| 6.00 to 7.00 | 6.00 to 7.00 | > 7.00 | Cc1c(CN(Cc2ccc(-c3cccc(C(C)(C)C(=O)O)c3)cc2)Cc2ccc(C(F)(F)F)o2)c2ccccc2[nH]c1=O [27/22] |
| 5.00 to 6.00 | 6.00 to 7.00 | > 7.00 | COc1ccc2c(CN(Cc3ccc(-c4cccc(C(C)(C)C(=O)O)c4)cc3)Cc3ccc(C(F)(F)F)o3)cc(C)cc2c1 [27/24] |
| 5.00 to 6.00 | 6.00 to 7.00 | > 7.00 | Cc1ccc2ccc(C(N)=O)cc2c1CN(Cc1ccc(-c2cccc(C(C)(C)C(=O)O)c2)cc1)Cc1ccc(C(F)(F)F)o1 [27/25] |
| 6.00 to 7.00 | > 7.00 | > 7.00 | Cc1ccc2ccc(C#N)cc2c1CN(Cc1ccc(-c2cccc(C(C)(C)C(=O)O)c2)cc1)Cc1ccc(C(F)(F)F)o1 [27/27] |
| 5.00 to 6.00 | 6.00 to 7.00 | > 7.00 | Cc1ccc2ccccc2c1C(=O)N(CCc1cccc(Br)c1)Cc1ccc(-c2cccc(C(C)(C)C(=O)O)c2)cc1 [27/30] |
| > 7.00 | > 7.00 | > 7.00 | CC(C)(C(=O)O)c1cccc(-c2ccc(CN(Cc3ccc(C(F)(F)F)o3)C(=O)c3c4ccccc4nc4ccccc34)cc2)c1 [27/31] |
| > 7.00 | > 7.00 | > 7.00 | CCc1cc(C)c(CN(Cc2ccc(-c3cccc(C(C)(C)C(=O)O)c3)cc2)Cc2ccc(C(F)(F)F)o2)c(C)c1 [27/32] |
| 6.00 to 7.00 | > 7.00 | > 7.00 | Cc1cc(C)c(CN(Cc2ccc(-c3cccc(C(C)(C)C(=O)O)c3)cc2)Cc2ccc(C(F)(F)F)o2)c2c1CCC2 [27/33] |
| 5.00 to 6.00 | 5.00 to 6.00 | 6.00 to 7.00 | Cc1cc(C)c(CN(Cc2ccc(-c3cccc(S(=O)(=O)CC(=O)O)c3)cc2)Cc2ccc(C(F)(F)F)o2)c(C)c1C [27/34] |
| 5.00 to 6.00 | 5.00 to 6.00 | 6.00 to 7.00 | CCc1cc(C)cc(C)c1CN(Cc1ccc(-c2cccc(S(=O)(=O)CC(=O)O)c2)cc1)Cc1ccc(C(F)(F)F)o1 [27/35] |
| 6.00 to 7.00 | 6.00 to 7.00 | > 7.00 | Cc1ccc2ccccc2c1C(=O)N(Cc1ccc(-c2cncc(C(C)(C)C(=O)O)c2)cc1)Cc1ccc(C(F)(F)F)o1 [27/37] |
| > 7.00 | 6.00 to 7.00 | > 7.00 | CC(C)(C(=O)O)c1cccc(-c2ccc(CN(Cc3ccc(C(F)(F)F)o3)C(C)(C)c3cccc4ccccc34)cc2)c1 [27/39] |
| 5.00 to 6.00 | 5.00 to 6.00 | 5.00 to 6.00 | O=C(O)CS(=O)(=O)c1cccc(-c2ccc(CN(Cc3ccc(C(F)(F)F)o3)C(=O)c3cccc4ccccc34)cc2)c1 [27/41] |
